Data taken from publication PMC2701352 (Biochemical pharmacology, 2008).
“Also recorded” adds a separate entry of the source.

Experiments:
hMC4R/TM2 hMC1R = hMC4R/TM2 hMC1R (Homo sapiens, UniProt P32245, A89S/G98V/I102A/M91L/S85C/S99L/V88L/V95G); test: cAMP production, hMC4R/TM2hMC1R chimera; format: cell-based
hMC1R WT = hMC1R WT (Homo sapiens, UniProt Q01726); test: cAMP production, hMC1R WT in HEK-293 cells; format: cell-based
hMC4R/TM3 hMC1R = hMC4R/TM3 hMC1R (Homo sapiens, UniProt P32245+Q01726); test: cAMP production, hMC4R/TM3hMC1R chimera
Sequence of hMC4R/TM3 hMC1R (P32245 1-121 limits assumed): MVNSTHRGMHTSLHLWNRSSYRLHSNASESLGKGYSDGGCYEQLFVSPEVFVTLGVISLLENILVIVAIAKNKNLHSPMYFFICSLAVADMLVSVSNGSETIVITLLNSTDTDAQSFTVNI
Sequence of hMC4R/TM3 hMC1R (Q01726 117-137 limits assumed): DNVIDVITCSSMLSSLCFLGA
Sequence of hMC4R/TM3 hMC1R (P32245 143-332 limits assumed): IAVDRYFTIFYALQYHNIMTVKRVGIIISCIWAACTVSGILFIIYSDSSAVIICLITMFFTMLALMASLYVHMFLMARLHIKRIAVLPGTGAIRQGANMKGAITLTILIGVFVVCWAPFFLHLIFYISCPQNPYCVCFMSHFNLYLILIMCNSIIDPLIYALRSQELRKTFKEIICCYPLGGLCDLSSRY

hMC4R/TM6 hMC1R = hMC4R/TM6 hMC1R (Homo sapiens, UniProt P32245+Q01726); test: cAMP production, hMC4R/TM6hMC1R chimera
Sequence of hMC4R/TM6 hMC1R (P32245 1-251 limits assumed, other chains not shown): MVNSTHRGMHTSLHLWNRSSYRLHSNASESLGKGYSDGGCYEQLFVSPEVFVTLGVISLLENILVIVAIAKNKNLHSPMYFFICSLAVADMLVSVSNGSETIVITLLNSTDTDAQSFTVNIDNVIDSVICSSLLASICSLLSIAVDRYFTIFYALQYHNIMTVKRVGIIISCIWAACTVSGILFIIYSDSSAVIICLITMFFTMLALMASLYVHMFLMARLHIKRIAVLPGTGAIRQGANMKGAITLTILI
Sequence of hMC4R/TM6 hMC1R (P32245 271-332 limits assumed, other chains not shown): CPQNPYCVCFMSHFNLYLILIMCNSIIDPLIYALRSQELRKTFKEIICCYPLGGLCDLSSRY

hMC4R/TM4 hMC1R = hMC4R/TM4 hMC1R (Homo sapiens, UniProt P32245+Q01726); test: cAMP production, hMC4R/TM4hMC1R chimera
Sequence of hMC4R/TM4 hMC1R (P32245 1-172 limits assumed, other chains not shown): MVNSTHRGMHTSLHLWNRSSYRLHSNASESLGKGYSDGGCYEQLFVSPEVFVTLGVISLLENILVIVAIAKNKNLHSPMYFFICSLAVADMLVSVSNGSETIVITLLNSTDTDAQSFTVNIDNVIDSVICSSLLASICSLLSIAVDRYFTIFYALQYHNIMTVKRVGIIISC
Sequence of hMC4R/TM4 hMC1R (P32245 188-332 limits assumed, other chains not shown): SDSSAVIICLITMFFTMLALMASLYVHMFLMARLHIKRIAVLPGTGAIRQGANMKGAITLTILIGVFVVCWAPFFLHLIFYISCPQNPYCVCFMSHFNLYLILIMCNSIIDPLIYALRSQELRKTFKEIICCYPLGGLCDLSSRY

hMC4R WT = hMC4R WT (Homo sapiens, UniProt P32245); test: cAMP production, hMC4R WT in HEK-293 cells; format: cell-based
Sequence of hMC4R WT (P32245 whole entry): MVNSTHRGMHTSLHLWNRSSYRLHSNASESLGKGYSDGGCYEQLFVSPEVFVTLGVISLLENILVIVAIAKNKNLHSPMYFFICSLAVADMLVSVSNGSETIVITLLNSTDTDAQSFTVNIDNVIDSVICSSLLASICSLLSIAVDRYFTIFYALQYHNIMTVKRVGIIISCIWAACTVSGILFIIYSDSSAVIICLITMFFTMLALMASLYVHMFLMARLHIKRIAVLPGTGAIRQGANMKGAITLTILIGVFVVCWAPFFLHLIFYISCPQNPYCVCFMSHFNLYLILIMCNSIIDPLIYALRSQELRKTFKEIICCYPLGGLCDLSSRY

hMC4R/TM5 hMC1R = test: cAMP production, hMC4R/TM5hMC1R chimera; settings: Fig. 4B, 4D

Sequence of hMC1R WT (Q01726 whole entry): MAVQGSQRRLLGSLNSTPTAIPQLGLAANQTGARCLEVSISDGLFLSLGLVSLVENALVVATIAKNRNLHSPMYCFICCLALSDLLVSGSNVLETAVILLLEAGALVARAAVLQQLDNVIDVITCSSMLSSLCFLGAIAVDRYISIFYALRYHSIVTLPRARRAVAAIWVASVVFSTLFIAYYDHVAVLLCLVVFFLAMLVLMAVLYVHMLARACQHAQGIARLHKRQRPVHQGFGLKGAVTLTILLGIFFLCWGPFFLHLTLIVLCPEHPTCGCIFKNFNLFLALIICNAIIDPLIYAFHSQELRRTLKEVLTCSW
Sequence of hMC4R/TM2 hMC1R (P32245 whole entry S85C/V88L/A89S/M91L/V95G/G98V/S99L/I102A): as the sequence (P32245 whole entry) above, with S85C, V88L, A89S, M91L, V95G, G98V, S99L, I102A counted along it

- EC50 (hMC4R/TM2 hMC1R): 2.9 ± 0.3 nM
- EC50 (hMC1R WT): 2.3 ± 0.5 nM
- EC50 (hMC4R/TM3 hMC1R): 3.3 ± 0.5 nM
- EC50 (hMC4R/TM6 hMC1R): 3.2 ± 0.3 nM
- EC50 (hMC4R/TM4 hMC1R): 3.1 ± 0.3 nM
- EC50 (hMC4R WT): 35 nM
Structure (SMILES): CCCC[C@H](NC(=O)[C@@H](NC(=O)[C@@H](N)Cc1ccc(O)cc1)C(C)C)C(=O)NCC(=O)N1CCC[C@H]1C(=O)N[C@H](Cc1ccccc1)C(=O)N[C@@H](CCCNC(=N)N)C(=O)N[C@@H](Cc1c[nH]c2ccccc12)C(=O)N[C@@H](CC(=O)O)C(=O)N[C@@H](CCCNC(=N)N)C(=O)N[C@@H](Cc1ccccc1)C(=O)NCC(N)=O [[DPhe^6]-γ-MSH, H-Tyr-Val-Nle-Gly-Pro-DPhe-Arg-Trp-Asp-Arg-Phe-Gly-NH2]
- cAMP potency (in words) (hMC4R/TM2 hMC1R; Fig. 3B, 3D): did not significantly alter [DPhe^6]-γ-MSH potency
- cAMP production, potency and agonism (in words) (hMC1R WT; Fig. 2B, 2D): dose-dependently increased cAMP generation; also recorded: non selective agonist for the MC1R and MC4R
- cAMP potency (in words) (hMC4R/TM3 hMC1R; Fig. 3B, 3D): did not significantly alter [DPhe^6]-γ-MSH potency
- cAMP potency (in words) (hMC4R/TM6 hMC1R; Fig. 4B, 4D): did not significantly alter [DPhe^6]-γ-MSH potency
- cAMP potency (in words) (hMC4R/TM4 hMC1R; Figs. 3 and 4): did not significantly alter [DPhe^6]-γ-MSH potency
- cAMP production, potency and agonism (in words) (hMC4R WT; Fig. 2B, 2D): dose-dependently increased cAMP generation; also recorded: non selective agonist for the MC1R and MC4R
- cAMP potency (in words) (hMC4R/TM5 hMC1R): did not significantly alter [DPhe^6]-γ-MSH potency
